These results are taken from patent US8372971B2, “Heterocyclic compounds and methods of use” (TargeGen, Inc., priority 2004, dated 2013).

Where a name gives a salt, the structure may show the parent alone. Read-outs that look alike come from different tables or passages of the source. Some results are limits rather than exact numbers.

One assay has as its system HUVECs. The experiment in a line: XTT cell viability assay (Example 106). To be noted: 72 hours, read-out: Inhibition of HUVEC cell prolifiration (IC50). The assay is classed as cell-based, human. On the procedure: Some compounds described by the general structure (B) were tested for cell viability. XTT assay: HUVECs were seeded at 10,000 cells/well of a tissue culture treated 96-well plate treated with collagen type I and grown overnight in the complete EGM-2 media as described above. The following morning, the inhibitors were serial diluted with DMSO and added to the cells with a final DMSO concentration of 1%. After 72 hours cell viability was measured with an XTT assay (Sigma, St. Louis, Mo.). The cells were also photographed to compare morphological differences to the XTT trends observed. Determination of the IC50 values was performed with quantitative software (Prism software package, GraphPad Software, San Diego Calif.).
A general note: Tetrazolium dyes change colour on reduction, which living cells bring about.

In assay [1] the test system is p-MEK and p-ERK levels in HUVECs. The experiment in a line: Western Blot, inhibition of MAPK pathway in cellular assay (Example 105). The assay is classed as cell-based, human. To be noted: 50 ng/ml VEGF or FGF. On the procedure: Some compounds described by the general structure (B) were tested for inhibition of MAPK pathway in cellular assay. Western Blot: Early passage primary human umbilical vein endothelial cells (HUVECs) were maintained in EGM-2 containing SingleQuots (Cambrex, East Rutherford, N.J.), 10% FBS, 10 mM HEPES, and 50 μg/ml gentamicin. Prior to treatment of the cells with inhibitor, the HUVECs were starved for 18 h by replacing serum-containing complete media with serum-free and SingleQuot-free media. The starved cells were pre-treated with inhibitors for 60 min at various concentrations (0-20 μM). Next the HUVECs were treated with 50 ng/ml VEGF or FGF (Peprotech, Rocky Hill, N.J.) for 6 min and the cells were immediately washed with ice-cold PBS. Cells were lysed with ice-cold RIPA buffer containing 100 mM Tris pH 7.5, 150 mM NaCl, 1 mM EDTA, 1% deoxycholate, 1% Triton X-100, 0.1% SDS, 2 mM PMSF, one Complete-Mini protease inhibitor tablet (Roche, Indianapolis, Ind.; 1 tablet/7 ml of lysis buffer) and the phophatase inhibitors NaF (500 mM) and orthovanadate (1 mM). The cells were scraped and lysates transferred and centrifuged at 15,000 g for 10 main. Supernatants were transferred to new tubes and protein concentration was quantitated using the BCA protein reagent (Pierce, Rockford, Ill.). Cell lysates containing 20 μg of total protein were separated by 10% SDS-PAGE, transferred to nitrocellulose, and blocked in 5% milk in TBST. Anti phospho-ERK Thr 202/Tyr 204 (Cell Signaling, Beverly, Mass.), anti-phospho-MEK Ser217/221 (Cell Signaling), and c-Raf (BD Biosciences Pharmingen, San Diego, Calif.) used as primary antibodies were detected with horseradish peroxidase-conjugated goat anti-mouse or rabbit secondary antibodies and bands were visualized using the SuperSignal West Pico chemiluminescence reagent system (Pierce) and Kodak X-ray film (Rochester, N.Y.).
A general note: In western blotting, separated proteins are transferred to a membrane and probed.

Take `FC(F)(F)c1cc(Nc2nnc(-c3ccc(Oc4ccncc4)cc3)o2)ccc1Cl` [N-[4-chloro-3-(trifluoromethyl)phenyl]-5-[4-(pyridin-4-yloxy)phenyl]-1,3,4-oxadiazol-2-amine trifluoroacetate salt]: the IC50 with HUVECs (Homo sapiens, HUVEC) was 8.6 µM. In assay [1] (at 5 uM), the “Western Blot” value was “active at 5 uM”.

For `FC(F)(F)c1cc(-c2nnc(Nc3ccc(Oc4cccnc4)cc3)[nH]2)ccc1Cl` [5-[4-chloro-3-(trifluoromethyl)phenyl]-N-[4-(pyridine-3-yloxy)phenyl]-4H-1,2,4-triazol-3-amine trifluoroacetate salt], the IC50 with HUVECs (Homo sapiens, HUVEC) was more than 40 µM. For the same compound, the “Western Blot” value in assay [1] (at 5 uM) is “active at 5 uM”.

Turning to `Nc1cc(Oc2ccc(-c3nnc(Nc4cccc(Cl)c4)o3)cc2)nc(N)n1` [6-(4-{5-[(3-chlorophenyl)amino]-1,3,4-oxadiazol-2-yl}phenoxy) pyrimidine-2,4-diamine], in the assay on HUVECs (Homo sapiens, HUVEC), the IC50 was approximately 20 µM. In assay [1] (at 5 uM), the “Western Blot” value was “active at 5 uM”.

For `COc1ccc(C(=O)Nc2nnc(-c3ccc(Oc4cccnc4)cc3)o2)cc1C(F)(F)F` [4-methoxy-N-{5-[4-(pyridin-3-yloxy)phenyl]-1,3,4-oxadiazol-2-yl}-3-(trifluoromethyl)-benzamide], the IC50 in the assay on HUVECs (Homo sapiens, HUVEC) was more than 40 µM. In assay [1] (at 10 uM), the “Western Blot” value was “active at 10 uM”.

For the compound `FC(F)(F)c1cc(Nc2nnc(-c3cccc(Oc4ccncc4)c3)[nH]2)ccc1Cl` [(4-chloro-3-trifluoromethyl-phenyl)-{5-[3-(pyridin-4-yloxy)-phenyl]-4H-[1,2,4]triazol-3-yl}-amine trifluoroacetic acid salt], the IC50 in the assay on HUVECs (Homo sapiens, HUVEC) came to 1.79 µM. Further, in assay [1] (at 5 uM), the “Western Blot” value was “active at 5 uM”.

Consider `O=C(Nc1nnc(-c2ccc(Oc3cccnc3)cc2)o1)c1ccc(OC(F)(F)F)cc1` [N-{5-[4-(pyridine-3-yloxy)phenyl]-1,3,4-oxadiazol-2-yl}-4-(trifluoromethoxy)benzamide], for which, in the assay on HUVECs (Homo sapiens, HUVEC), the IC50 was more than 40 µM. Also, in assay [1] (at 10 uM), the “Western Blot” value is recorded as “not active at 10 uM”.

As for `O=C(Nc1nnc(-c2ccc(Oc3cccnc3)cc2)o1)c1cc(C(F)(F)F)cc(Cl)c1F` [3-Chloro-2-fluoro-N-{5-[4-pyridin-3-yloxy)phenyl]-1,3,4-oxadiazol-2-yl}-5-trifluoromethyl)-benzamide], in the assay with HUVECs (Homo sapiens, HUVEC), the IC50 is more than 40 µM. Further, the “Western Blot” value in assay [1] (at 10 uM) was “not active at 10 uM”.

For the compound `O=C(Nc1nnc(-c2ccc(Oc3cccnc3)cc2)o1)c1ccccc1OC(F)(F)F` [N-{5-[4-(pyridin-3-yloxy)phenyl]-1,3,4-oxadiazol-2-yl}-2-(trifluoromethoxy)-benzamide], in the assay on HUVECs (Homo sapiens, HUVEC), the IC50 is approximately 20 µM. The “Western Blot” value in assay [1] (at 10 uM) was “not active at 10 uM”.

For the compound `Clc1ccc(Nc2nnc(-c3ccc(Oc4cncnc4)cc3)o2)cc1` [5-[4-(Pyrimidin-5-yloxy)phenyl]-N-[4-chloro-phenyl]-1,3,4-oxadiazol-2-amine], in the assay on HUVECs (Homo sapiens, HUVEC), the IC50 is more than 20 µM. In assay [1] (at 5 uM), the “Western Blot” value was “active at 5 uM”.

With `Nc1cc(Oc2ccc(-c3nnc(Nc4cccc(C(F)(F)F)c4)o3)cc2)nc(N)n1` [6-[4-(5-{[3-(trifluoromethyl)phenyl]amino}-1,3,4-oxadiazol-2-yl)phenoxy}pyrimidine-2,4-diamine], the IC50 in the assay on HUVECs (Homo sapiens, HUVEC) is more than 10 µM. Besides, the “Western Blot” value in assay [1] (at 5 uM) was “active at 5 uM”.

Turning to `O=C(Nc1nnc(-c2ccc(Oc3cccnc3)cc2)o1)c1ccc2c(c1)OC(F)(F)O2` [2,2-Difluoro-N-{5-[4-(pyridin-3-yloxy)phenyl]-1,3,4-oxadiazol-2-yl}-1,3-benzodioxole-5-carboxamide], the IC50 in the assay on HUVECs (Homo sapiens, HUVEC) was more than 40 µM. Moreover, the “Western Blot” value in assay [1] (at 10 uM) is recorded as “not active at 10 uM”.

On to `Nc1cc(Oc2ccc(Nc3nnc(-c4ccc(Cl)c(C(F)(F)F)c4)[nH]3)cc2)nc(N)n1` [6-[4-({5-[4-chloro-3-(trifluoromethyl)phenyl-4H-1,2,4-triazol-3-yl}amino)phenoxy]pyrimidine-2,4-diamine trifluoroacetate salt], for which the IC50 with HUVECs (Homo sapiens, HUVEC) came out at 9.57 µM. The “Western Blot” value in assay [1] (at 5 uM) is on record as “active at 5 uM”.

For `Nc1cc(Oc2ccc(-c3nnc(Nc4ccc(Cl)c(C(F)(F)F)c4)o3)cc2)nc(N)n1` [6-[4-(5-{[4-Chloro-3-trifluoromethyl-phenyl]amino}-1,3,4-oxadiazol-2-yl)-phenoxy]-pyrimidine-2,4-diamine], the IC50 in the assay on HUVECs (Homo sapiens, HUVEC) was determined as 1.57 µM. The “Western Blot” value in assay [1] (at 5 uM) is recorded as “active at 5 uM”.

Turning to `FC(F)(F)c1cc(Nc2nnc(-c3ccc(Oc4cncnc4)cc3)o2)ccc1Cl` [N-[4-chloro-3-(trifluoromethyl)phenyl]-5-[4-(pyrimidin-5-yloxy)phenyl]-1,3,4-oxadiazol-2-amine trifluoroacetate salt], the IC50 with HUVECs (Homo sapiens, HUVEC) amounted to 9.65 µM. Further, the “Western Blot” value in assay [1] (at 5 uM) was “active at 5 uM”.

Consider `O=C(Nc1nnc(-c2ccc(Oc3cccnc3)cc2)o1)c1cccc(C(F)(F)F)c1` [N-{5-[4-(pyridin-3-yloxy)phenyl]-1,3,4-oxadiazol-2-yl}-3-(trifluoromethyl)benzamide], for which the IC50 in the assay with HUVECs (Homo sapiens, HUVEC) is more than 40 µM. The “Western Blot” value in assay [1] (at 10 uM) was “active at 10 uM”.

Turning to `Nc1cc(Oc2ccc(-c3nnc(Nc4ccc(Cl)cc4)o3)cc2)nc(N)n1` [6-(4-{5-[(4-chlorophenyl)amino]-1,3,4-oxadiazol-2-yl}phenoxy) pyrimidine-2,4-diamine], in the assay with HUVECs (Homo sapiens, HUVEC), the IC50 came to 2.6 µM. Further, the “Western Blot” value in assay [1] (at 5 uM) was “active at 5 uM”.

As to `Br.Nc1nnc(-c2ccc(Oc3cccnc3)cc2)o1` [5-[4-(Pyridin-3-yloxy)phenyl]-1,3,4-oxadiazol-2-amine hydrobromide salt], the IC50 in the assay with HUVECs (Homo sapiens, HUVEC) was more than 40 µM. Also, the “Western Blot” value in assay [1] (at 10 uM) is “not active at 10 uM”.

`CNC(=O)c1cc(Oc2ccc(-c3nnc(Nc4ccc(Cl)c(C(F)(F)F)c4)[nH]3)cc2)ccn1` [4-{4-[5-(4-chloro-3-trifluoromethyl-phenylamino)-4H-[1,2,4]triazol-3-yl]-phenoxy}-pyridine-2-carboxylic acid methylamide trifluoroacetic acid salt]: in the assay on HUVECs (Homo sapiens, HUVEC), the IC50 is 2.85 µM. Besides, the “Western Blot” value in assay [1] (at 10 uM) is reported as “active at 10 uM”.

For `Nc1cc(Oc2ccc(Nc3nnc(-c4ccc(OC(F)(F)F)cc4)[nH]3)cc2)nc(N)n1` [6-[4-({5-[4-(trifluoromethoxy)-phenyl-4H-1,2,4-triazol-3-yl}amino)phenoxy]pyrimidine-2,4-diamine], the IC50 in the assay with HUVECs amounted to 6.58 µM. For the same compound, the “Western Blot” value in assay [1] (concentration not given) is on record as “not active”.

Take `FC(F)(F)c1cc(Nc2nnc(-c3ccc(Oc4cccnc4)cc3)o2)ccc1Cl` [N-[4-chloro-3-(trifluoromethyl)phenyl]-5-[4-(pyridin-3-yloxy)phenyl]-1,3,4-oxadiazol-2-amine trifluoroacetate salt]: the IC50 in the assay with HUVECs (Homo sapiens, HUVEC) worked out at 1.72 µM. In assay [1] (at 5 uM), the “Western Blot” value is listed as “active at 5 uM”.

With `Clc1ccc(Nc2nnc(-c3ccc(Oc4cccnc4)cc3)o2)cc1` [5-[4-(Pyridin-3-yloxy)phenyl]-N-[4-chloro-phenyl]-1,3,4-oxadiazol-2-amine], the IC50 in the assay on HUVECs (Homo sapiens, HUVEC) is 9.6 µM. In assay [1] (at 10 uM), the “Western Blot” value was “active at 10 uM”.
